The source of these data is US20220048878A1, “IMPROVEMENT IN OR RELATING TO ORGANIC COMPOUNDS” (GIVAUDAN SA, priority 2018, published 2022).

Data set [1] relates to male rats. The following applies: cited from earlier work.
For data set [2] the following is noted: cited from earlier work.
The test system of data set [3] is male rats. Put plainly: Repeated dose 28-day oral toxicity study in rats (OECD Guideline 407), reproductive organs and sperm analysis. It is filed as in vivo. The following applies: for Motile Sperms (%) / Sperm cells with normal morphology (count/total) / Sperm cells with normal morphology (percent) / Number of sperms per gram: male rats. Here is the method:
An isomeric mixture obtained according to Example 1 b was tested in a repeated dose 28-day oral toxicity study in rats according to OECD Guideline 407 (OECD, Paris, October 2008). Groups of animals (n=5) were fed with a diet containing the test item to obtain a daily ingested dose of 100 mg/kg body weight/day, 300 mg/kg body weight/day and 1000 mg/kg body weight/day. The animals were treated for 28 days. After this period, they were sacrificed and their organs were examined by pathological examination for gross lesions, weight changes and further investigated by histopathology. The seminal fluid from the epididymis was sampled and analyzed microscopically for number, morphology and motility of sperms.
All treated groups were compared to the control group with a Dunnett-test based on pooled variance and a Steel-test.

The mark [4] stands for this setting: male rats, 1000 mg/kg body weight per day.
[5] abbreviates: male rats, 300 or 1000 mg/kg body weight per day.
The mark [6] stands for this setting: rats, 100, 300 and 1000 mg/kg body weight/day, 28 days.

SMILES strings stand for the structures. Where two headings read alike, the source gives them in different places.

For `CC(C)=CC1CC(C)CCO1` (racemic) [Rose Oxide, 4-methyl-2-(2-methylprop-1-en-1-yl)tetrahydro-2H-pyran], the “Effects on sperm formation” value in the data set with male rats [1] (28 days, OECD guideline 407, middle (300 mg/kg bw/d) and high (1000 mg/kg bw/d) dose) is reported as “clear-cut effects on sperm formation”. In the data set with male rats [1] (classification provided by companies to ECHA), the “Classification (REACH/ECHA)” value is on record as “CMR2”. In addition, the “Severity of immature ducts in distal corpus and/or cauda epididymis (histopathology)” value in the data set with male rats [1] (male rats, 300 mg/kg body weight per day) is on record as “minimal to slight”. Also, in the data set with male rats [1] (setting [4]), the “Severity of immature ducts in distal corpus and/or cauda epididymis (histopathology)” value is “slight to severe”; the “Weight increase of the epididymis, absolute” value is on record as 33%; the “Weight increase of the epididymis, relative” value was 26%. In addition, in the data set with male rats [1] (setting [5]), the “Sperm function and morphology in the cauda epididymis” value is “adversely affected”; the Sperm numbers entry was “significantly reduced”. Besides, the “Time to evaporate on a smelling strip” value in data set [2] (smelling strip) is ≤ 30 min.
Turning to `CCC(C)=C[C@@H]1C[C@H](C)CCO1` (relative stereo) [rel-(2S,4R)-4-methyl-2-(2-methylbut-1-en-1-yl)tetrahydro-2H-pyran], in the data set with male rats [3] (rats), the “Suppression of sperm formation” value is “does not suppress sperm formation”.
Turning to `CC1CCOC(c2ccccc2)C1` (stereo not drawn) [Doremox®, 4-methyl-2-phenyltetrahydro-2H-pyran], the “Lastingness compared to Rose Oxide” value in data set [2] (background statement) is “too long-lasting compared to Rose Oxide”.
`CCC(C)=CC1CC(C)CCO1` (stereo not drawn) [Example 1b, 4-methyl-2-(2-methylbut-1-en-1-yl)tetrahydro-2H-pyran]: the “Effect on key parameters of male fertility” value in the data set on male rats [3] (28 days, up to 1000 mg/kg bw/d) is “no effect”. The “Difference in sperm parameters between control group and treated groups” value in the data set with male rats [3] (Dunnett-test and Steel-test, p=0.05 significance level) is “No significant differences”. Also, the “Motile Sperms (%)” value in the data set with male rats [3] (100 mg/kg bw/d, 28 days) is reported as 63 ± 12%; in the data set with male rats [3] (300 mg/kg bw/d, 28 days), 47 ± 13%; in the data set on male rats [3] (1000 mg/kg bw/d, 28 days) it was 53 ± 23%. Also, the “Sperm cells with normal morphology (count/total)” value is reported as 156/246 in the data set with male rats [3] (100 mg/kg bw/d, 28 days); 170/210 in the data set on male rats [3] (300 mg/kg bw/d, 28 days); 158/197 in the data set with male rats [3] (1000 mg/kg bw/d, 28 days). The “Sperm cells with normal morphology (percent)” value in the data set on male rats [3] (100 mg/kg bw/d, 28 days) is recorded as “(63.4%)”; in the data set with male rats [3] (300 mg/kg bw/d, 28 days), “(81.0%)”; with male rats [3] (1000 mg/kg bw/d, 28 days), “(80.2%)”. The “Number of sperms per gram” value with male rats [3] (n = 5, 100 mg/kg bw/d in diet, 28 days) is given as 3.9 ± 0.9 × 10^8; in the data set on male rats [3] (n = 5, 300 mg/kg bw/d in diet, 28 days), 4.0 ± 0.9 × 10^8; in the data set on male rats [3] (n = 5, 1000 mg/kg bw/d in diet, 28 days), 4.0 ± 1.9 × 10^8. Further, the “Macroscopic changes to reproductive organs” value with male rats [3] (setting [6]) is given as “no macroscopic changes”. For the same compound, the “Weight of the reproductive organs versus control group” value in the data set on male rats [3] (setting [6]) was “not different from the control group”.
